Measured values taken from ChEMBL document CHEMBL1201862, “PubChem BioAssay data set” (2004).
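The compound was tested at five concentrations on cells cultured in 96-well plates, with a 48-hour exposure period. GI50: concentration for 50% inhibition of growth.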 Calls of active or inactive are those of the source. Cut-off read from the data, not from the text of the source: active = GI50 up to about 1.1 µM and inactive = higher.

Columns and labels:
Assay in all cases: growth of human tumour cells (NCI), 48 h
A549 = system: A549
BT-549 = system: BT-549
COLO 205 = system: COLO 205
HCC 2998 = system: HCC 2998
HOP-92 = system: HOP-92
LOX IMVI = system: LOX IMVI
M14 = system: M14
MDA-MB-231 = system: MDA-MB-231
NCI-H226 = system: NCI-H226
NCI/ADR-RES = system: NCI/ADR-RES
OVCAR-5 = system: OVCAR-5
RXF 393 = system: RXF 393
SF-295 = system: SF-295
SF-539 = system: SF-539
SK-MEL-2 = system: SK-MEL-2
SK-OV-3 = system: SK-OV-3
SNB-75 = system: SNB-75
TK-10 = system: TK-10
U-251 = system: U-251
UACC-62 = system: UACC-62

Row | Structure (SMILES) | GI50 (A549) | GI50 (BT-549) | GI50 (COLO 205) | GI50 (HCC 2998) | GI50 (HOP-92) | GI50 (LOX IMVI) | GI50 (M14) | GI50 (MDA-MB-231) | GI50 (NCI-H226) | GI50 (NCI/ADR-RES) | GI50 (OVCAR-5) | GI50 (RXF 393) | GI50 (SF-295) | GI50 (SF-539) | GI50 (SK-MEL-2) | GI50 (SK-OV-3) | GI50 (SNB-75) | GI50 (TK-10) | GI50 (U-251) | GI50 (UACC-62)
1 | Nc1ccc(-c2nc3cc(F)ccc3s2)cc1Br | 8.97 µM (inactive) | 7.69 µM (inactive) | 0.377 µM (active) | < 0.01 µM (active) | 29.1 µM (inactive) | > 51.2 µM (inactive) | > 95.5 µM (inactive) | 8.95 µM (inactive) | 0.0504 µM (active) | > 56.8 µM (inactive) | 0.0904 µM (active) | 25.5 µM (inactive) | 23.5 µM (inactive) | > 41.5 µM (inactive) | > 89.5 µM (inactive) | > 59 µM (inactive) | 18.3 µM (inactive) | 0.0306 µM (active) | 18.1 µM (inactive) | > 84.1 µM (inactive)
2 | Nc1ncnc2c1ncn2CCCNO | > 100 µM (inactive) | > 100 µM (inactive) | > 100 µM (inactive) | > 100 µM (inactive) | > 100 µM (inactive) | > 100 µM (inactive) | > 100 µM (inactive) | > 100 µM (inactive) | > 100 µM (inactive) | > 100 µM (inactive) | > 100 µM (inactive) | > 100 µM (inactive) | > 100 µM (inactive) | > 100 µM (inactive) | > 100 µM (inactive) | > 100 µM (inactive) | > 100 µM (inactive) | > 100 µM (inactive) | > 100 µM (inactive) | > 100 µM (inactive)
3 | NS(=O)(=O)c1ccc(/N=N/c2nc3nc(O)nc(O)c3[nH]2)cc1 | > 100 µM (inactive) | > 100 µM (inactive) | > 100 µM (inactive) | > 100 µM (inactive) | > 100 µM (inactive) | > 100 µM (inactive) | > 100 µM (inactive) | > 100 µM (inactive) | > 100 µM (inactive) | > 100 µM (inactive) | > 100 µM (inactive) | > 100 µM (inactive) | > 100 µM (inactive) | > 100 µM (inactive) | > 100 µM (inactive) | > 100 µM (inactive) | > 100 µM (inactive) | > 100 µM (inactive) | > 100 µM (inactive) | > 100 µM (inactive)
4 | CC(C)C/N=C(\N)N=C(N)N | > 100 µM (inactive) | > 100 µM (inactive) | > 100 µM (inactive) | > 100 µM (inactive) | > 100 µM (inactive) | > 100 µM (inactive) | > 100 µM (inactive) | > 100 µM (inactive) | > 100 µM (inactive) | > 100 µM (inactive) | > 100 µM (inactive) | > 100 µM (inactive) | > 100 µM (inactive) | > 100 µM (inactive) | > 100 µM (inactive) | > 100 µM (inactive) | > 100 µM (inactive) | > 100 µM (inactive) | > 100 µM (inactive) | > 100 µM (inactive)
5 | COc1cc(/C=C2\NC(=O)N(/C=C3\C(=O)Oc4ccccc4C3=O)C2=O)ccc1O | > 100 µM (inactive) | 43 µM (inactive) | 78.2 µM (inactive) | 41.2 µM (inactive) | > 100 µM (inactive) | 49.5 µM (inactive) | 99.3 µM (inactive) | 35.2 µM (inactive) | > 100 µM (inactive) | > 100 µM (inactive) | > 100 µM (inactive) | 25.1 µM (inactive) | > 100 µM (inactive) | 63.1 µM (inactive) | > 100 µM (inactive) | 51.1 µM (inactive) | 13.8 µM (inactive) | > 100 µM (inactive) | 76.6 µM (inactive) | 49 µM (inactive)
6 | NS(=O)(=O)c1c(O)c2ccccc2oc1=O | > 100 µM (inactive) | > 100 µM (inactive) | > 100 µM (inactive) | > 100 µM (inactive) | > 100 µM (inactive) | > 100 µM (inactive) | > 100 µM (inactive) | > 100 µM (inactive) | > 100 µM (inactive) | > 100 µM (inactive) | > 100 µM (inactive) | > 100 µM (inactive) | > 100 µM (inactive) | > 100 µM (inactive) | > 100 µM (inactive) |  | > 100 µM (inactive) | > 100 µM (inactive) | > 100 µM (inactive) | > 100 µM (inactive)
7 | Cc1[nH]c2c(c1C)S(=O)(=O)c1cc3ccccc3nc1N2 | 36.3 µM (inactive) | 69.8 µM (inactive) | 20 µM (inactive) | 65.2 µM (inactive) | 25.4 µM (inactive) | 10.6 µM (inactive) | 20 µM (inactive) | 27.8 µM (inactive) | 22 µM (inactive) | 32.3 µM (inactive) | 19.7 µM (inactive) | 19.3 µM (inactive) | 27.3 µM (inactive) | 6.81 µM (inactive) | 55.3 µM (inactive) | 30.8 µM (inactive) | 17.3 µM (inactive) | 37.7 µM (inactive) | 11.2 µM (inactive) | 42.7 µM (inactive)
8 | Clc1ccc(-c2nn3c(CCCCCCCCc4nnc5sc(-c6ccc(Cl)cc6)nn45)nnc3s2)cc1 | 13.2 µM (inactive) | 24.8 µM (inactive) | 26.6 µM (inactive) | 48.3 µM (inactive) | 31 µM (inactive) | 7.24 µM (inactive) | 18.7 µM (inactive) | 27 µM (inactive) | 25.6 µM (inactive) | 21 µM (inactive) | 36.3 µM (inactive) | 14.9 µM (inactive) | 17.6 µM (inactive) | 19.9 µM (inactive) | 29.8 µM (inactive) | 30.1 µM (inactive) | 19.9 µM (inactive) | 23.4 µM (inactive) | 15.9 µM (inactive) | 32.4 µM (inactive)
9 | O=C1c2ccccc2C(=O)N1CCCCCCNOCCCN1C(=O)c2ccccc2C1=O | 32.4 µM (inactive) | 30.3 µM (inactive) | 38.7 µM (inactive) | > 100 µM (inactive) | 34 µM (inactive) | 36.2 µM (inactive) | 21.3 µM (inactive) | 57.5 µM (inactive) | > 100 µM (inactive) | 26.4 µM (inactive) | > 100 µM (inactive) | 17.5 µM (inactive) | 29.4 µM (inactive) |  | 16.3 µM (inactive) | 56.9 µM (inactive) | 25.1 µM (inactive) | 59 µM (inactive) | 63 µM (inactive) | 19.5 µM (inactive)
10 | CC1=C(SCc2ccccc2)C(=O)c2ccccc2C1=O |  | 16.7 µM (inactive) | 19.7 µM (inactive) | 26.7 µM (inactive) | 4.72 µM (inactive) | 17.6 µM (inactive) |  | 17.1 µM (inactive) |  | 21.7 µM (inactive) | 25.5 µM (inactive) | 16.6 µM (inactive) | 18.1 µM (inactive) | 14.8 µM (inactive) | 17.8 µM (inactive) | 20.2 µM (inactive) | 13.4 µM (inactive) | 21 µM (inactive) | 16.8 µM (inactive) | 15.8 µM (inactive)
11 | Cc1c(O)oc2ccccc2c1=O | > 100 µM (inactive) | > 100 µM (inactive) | > 100 µM (inactive) | > 100 µM (inactive) | > 100 µM (inactive) | > 100 µM (inactive) | > 100 µM (inactive) | > 100 µM (inactive) | > 100 µM (inactive) | > 100 µM (inactive) | > 100 µM (inactive) | > 100 µM (inactive) | > 100 µM (inactive) | > 100 µM (inactive) | > 100 µM (inactive) |  | > 100 µM (inactive) |  | > 100 µM (inactive) | > 100 µM (inactive)
12 | C=C1[C@@H](OC(C)=O)/C=C/C2C3C(=O)[C@@](C)(OC(C)=O)[C@H]([C@H](OC(C)=O)[C@]4(O)[C@@H](C)C(=O)O[C@H]4[C@H]1Cl)[C@@]23C (stereo not given in full) | > 100 µM (inactive) | > 100 µM (inactive) | > 100 µM (inactive) | > 100 µM (inactive) | > 100 µM (inactive) | > 100 µM (inactive) | > 100 µM (inactive) | > 100 µM (inactive) | > 100 µM (inactive) | > 100 µM (inactive) | > 100 µM (inactive) | > 100 µM (inactive) | > 100 µM (inactive) |  | > 100 µM (inactive) | > 100 µM (inactive) | > 100 µM (inactive) | > 100 µM (inactive) | > 100 µM (inactive) | > 100 µM (inactive)
13 | N/C(COc1ccc(Cl)cc1)=N\NC(=O)c1ccncc1 | > 100 µM (inactive) | > 100 µM (inactive) | > 100 µM (inactive) | > 100 µM (inactive) | 58.9 µM (inactive) | 38.4 µM (inactive) | > 100 µM (inactive) | > 100 µM (inactive) |  | 49.9 µM (inactive) | > 100 µM (inactive) | 35.9 µM (inactive) | > 100 µM (inactive) | > 100 µM (inactive) | > 100 µM (inactive) | > 100 µM (inactive) | 30.3 µM (inactive) | > 100 µM (inactive) | > 100 µM (inactive) | > 100 µM (inactive)
14 | Cc1ccc([N+](=O)[O-])cc1S(=O)(=O)Nc1ccc(C(=O)/C=C/c2cccs2)cc1 | 91.6 µM (inactive) | 18.7 µM (inactive) | 24.1 µM (inactive) | 18.5 µM (inactive) | 27.9 µM (inactive) | 20.7 µM (inactive) | 20.1 µM (inactive) | 16.3 µM (inactive) | 22.5 µM (inactive) | 24.9 µM (inactive) | 31.5 µM (inactive) | 17.7 µM (inactive) | 32.7 µM (inactive) | 27.2 µM (inactive) | 20.6 µM (inactive) | 44.1 µM (inactive) | 19.3 µM (inactive) | 56.2 µM (inactive) |  | 16.3 µM (inactive)
